Data from patent US11234971B2, “Methods of treating cancer comprising administration of a glucocorticoid receptor modulator and a cancer chemotherapy agent” (Corcept Therapeutics Incorporated, priority 2018, dated 2022).

Columns and labels:
[1] = test system: OVCAR-5 human ovarian cancer cells; assay: OVCAR-5 cell growth (Cell Titer-Glo) with chemotherapy agents with or without dexamethasone and relacorilant; assay type: cell-based
Experimental: The initial cell density was chosen to be low enough to allow for several population doublings (typically 3 to 5) during the indicated incubation period. […] After 48 hours of incubation, serially diluted test agents in growth medium were added to each well. After 72 hours of culture, the plated cells and Cell Titer-Glo® (Promega G7571) reagents were brought to room temperature to equilibrate for 30 minutes. 200 μL of Cell Titer-Glo® reagent was then added to each well, the plate was shaken for two minutes, and then left to equilibrate for ten minutes. The Cell Titer-Glo® cell viability assay uses ATP levels to determine cell numbers. After this equilibration, luminescence was read on the Biotech Synergy II microplate reader. The percent control (% C) of cell growth for each test concentration was calculated relative to untreated wells. All tests were performed in quadruplicate. Individual assay plates were evaluated for appropriate signal and well-to-well variance in the control wells for quality control.

MIA PaCa-2 xenograft = MIA PaCa-2 xenograft tumor growth in immunodeficient mice; assay type: in vivo
Source text: The present example, Example 3, provides results of administration of the glucocorticoid receptor modulator relacorilant to cancerous cells. […] The MIA PaCa-2 xenograft model uses MIA PaCa-2 cell-line cells (pancreatic tumor cells derived from a pancreatic adenocarcinoma from a patient) engrafted into immunodeficient mice. The ovarian OVCAR-5 cell line is derived from a human epithelial carcinoma of the ovary, and was established from ascitic fluid obtained (prior to cytotoxic treatment) from a patient with progressive ovarian adenocarcinoma.
FIG. 10A. Relacorilant sensitizes the MIA PaCa-2 xenograft to paclitaxel. Tumor volume of PaCa-2 xenograft tumors implanted in immunodeficient mice is shown as a function of time (days) after implantation in the presence of vehicle (filled circles), paclitaxel (7.5 mg/kg; filled squares), relacorilant alone (upwardly pointing triangles), and relacorilant+7.5 mg/kg paclitaxel (downwardly pointing triangles). 7.5 mg/kg paclitaxel was administered three times (at the days indicated by the dashed vertical lines, indicating days 8, 12, and 16 following tumor implantation into the mice).
FIG. 10B. Relacorilant with Paclitaxel Reduces MIA PaCa-2 xenograft Tumor Volume. Initial tumor volume of PaCa-2 xenograft tumors implanted in immunodeficient mice was less than 400 cubic millimeters (mm^3). […] Tumor size progression is thus indicated by lines descending from the top (100%) value. The tumor-bearing mice were treated with vehicle, relacorilant (30 mg/kg every day), paclitaxel (three doses of 7.5 mg/kg paclitaxel, one dose administered on each of the days indicated in FIG. 10A), and the combination relacorilant (30 mg/kg every day) with paclitaxel (7.5 mg/kg doses of paclitaxel each administered on days 8, 12, and 16 post implantation). […] Xenograft tumor growth was slowed by combined relacorilant+paclitaxel as compared to either paclitaxel alone or relacorilant alone. Relacorilant thus enhanced sensitivity to paclitaxel in the pancreatic MIA PaCa-2 xenograft model.

glucocorticoid receptor = biological target: T1, glucocorticoid receptor (Homo sapiens, UniProt P04150); settings: cited from earlier work
T1 sequence (P04150 1-777): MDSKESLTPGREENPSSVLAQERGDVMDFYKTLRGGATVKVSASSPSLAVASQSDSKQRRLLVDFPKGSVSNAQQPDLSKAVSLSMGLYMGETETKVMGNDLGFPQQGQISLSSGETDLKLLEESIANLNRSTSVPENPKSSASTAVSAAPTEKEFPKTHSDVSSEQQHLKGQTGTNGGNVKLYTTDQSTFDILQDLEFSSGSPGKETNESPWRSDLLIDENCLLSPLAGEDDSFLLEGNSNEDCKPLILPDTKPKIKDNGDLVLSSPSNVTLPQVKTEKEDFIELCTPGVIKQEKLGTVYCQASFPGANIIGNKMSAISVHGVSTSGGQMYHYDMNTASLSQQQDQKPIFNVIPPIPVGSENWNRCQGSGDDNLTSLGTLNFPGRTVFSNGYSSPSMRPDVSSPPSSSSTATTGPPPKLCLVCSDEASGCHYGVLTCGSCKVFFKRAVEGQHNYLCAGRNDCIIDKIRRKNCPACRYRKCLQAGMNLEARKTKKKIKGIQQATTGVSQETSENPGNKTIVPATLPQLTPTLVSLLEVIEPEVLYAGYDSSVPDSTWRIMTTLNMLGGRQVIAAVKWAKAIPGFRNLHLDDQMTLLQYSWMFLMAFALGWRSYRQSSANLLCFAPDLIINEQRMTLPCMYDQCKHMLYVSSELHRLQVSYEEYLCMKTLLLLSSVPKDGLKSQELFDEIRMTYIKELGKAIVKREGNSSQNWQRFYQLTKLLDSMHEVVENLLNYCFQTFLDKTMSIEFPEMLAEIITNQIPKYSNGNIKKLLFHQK

androgen receptor = androgen receptor (Homo sapiens, UniProt P10275); settings: cited from earlier work
androgen receptor, sequence (P10275 whole entry, species assumed): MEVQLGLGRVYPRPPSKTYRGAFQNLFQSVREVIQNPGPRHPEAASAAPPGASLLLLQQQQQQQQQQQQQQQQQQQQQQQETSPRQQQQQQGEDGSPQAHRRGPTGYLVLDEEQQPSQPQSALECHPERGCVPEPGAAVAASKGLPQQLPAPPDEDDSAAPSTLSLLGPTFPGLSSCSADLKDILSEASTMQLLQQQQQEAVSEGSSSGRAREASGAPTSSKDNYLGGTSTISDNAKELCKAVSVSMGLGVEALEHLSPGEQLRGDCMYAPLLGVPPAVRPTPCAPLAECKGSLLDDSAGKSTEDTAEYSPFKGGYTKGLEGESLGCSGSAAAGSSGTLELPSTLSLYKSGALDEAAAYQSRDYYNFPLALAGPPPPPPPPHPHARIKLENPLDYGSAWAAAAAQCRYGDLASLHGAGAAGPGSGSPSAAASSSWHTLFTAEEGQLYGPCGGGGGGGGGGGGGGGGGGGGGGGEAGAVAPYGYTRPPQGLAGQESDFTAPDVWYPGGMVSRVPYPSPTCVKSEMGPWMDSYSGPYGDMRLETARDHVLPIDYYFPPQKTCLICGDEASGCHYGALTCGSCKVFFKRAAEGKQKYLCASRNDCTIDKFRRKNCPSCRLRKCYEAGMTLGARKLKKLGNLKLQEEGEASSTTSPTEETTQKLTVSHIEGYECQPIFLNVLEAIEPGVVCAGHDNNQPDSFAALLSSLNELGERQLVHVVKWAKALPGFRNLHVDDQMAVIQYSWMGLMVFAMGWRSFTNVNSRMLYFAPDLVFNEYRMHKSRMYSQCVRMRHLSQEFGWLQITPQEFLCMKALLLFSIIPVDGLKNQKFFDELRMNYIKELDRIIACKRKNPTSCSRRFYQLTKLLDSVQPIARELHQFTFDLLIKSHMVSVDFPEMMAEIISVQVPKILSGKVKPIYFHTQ

progesterone receptor = progesterone receptor (Homo sapiens, UniProt P06401); settings: cited from earlier work
progesterone receptor, sequence (P06401 whole entry, species assumed): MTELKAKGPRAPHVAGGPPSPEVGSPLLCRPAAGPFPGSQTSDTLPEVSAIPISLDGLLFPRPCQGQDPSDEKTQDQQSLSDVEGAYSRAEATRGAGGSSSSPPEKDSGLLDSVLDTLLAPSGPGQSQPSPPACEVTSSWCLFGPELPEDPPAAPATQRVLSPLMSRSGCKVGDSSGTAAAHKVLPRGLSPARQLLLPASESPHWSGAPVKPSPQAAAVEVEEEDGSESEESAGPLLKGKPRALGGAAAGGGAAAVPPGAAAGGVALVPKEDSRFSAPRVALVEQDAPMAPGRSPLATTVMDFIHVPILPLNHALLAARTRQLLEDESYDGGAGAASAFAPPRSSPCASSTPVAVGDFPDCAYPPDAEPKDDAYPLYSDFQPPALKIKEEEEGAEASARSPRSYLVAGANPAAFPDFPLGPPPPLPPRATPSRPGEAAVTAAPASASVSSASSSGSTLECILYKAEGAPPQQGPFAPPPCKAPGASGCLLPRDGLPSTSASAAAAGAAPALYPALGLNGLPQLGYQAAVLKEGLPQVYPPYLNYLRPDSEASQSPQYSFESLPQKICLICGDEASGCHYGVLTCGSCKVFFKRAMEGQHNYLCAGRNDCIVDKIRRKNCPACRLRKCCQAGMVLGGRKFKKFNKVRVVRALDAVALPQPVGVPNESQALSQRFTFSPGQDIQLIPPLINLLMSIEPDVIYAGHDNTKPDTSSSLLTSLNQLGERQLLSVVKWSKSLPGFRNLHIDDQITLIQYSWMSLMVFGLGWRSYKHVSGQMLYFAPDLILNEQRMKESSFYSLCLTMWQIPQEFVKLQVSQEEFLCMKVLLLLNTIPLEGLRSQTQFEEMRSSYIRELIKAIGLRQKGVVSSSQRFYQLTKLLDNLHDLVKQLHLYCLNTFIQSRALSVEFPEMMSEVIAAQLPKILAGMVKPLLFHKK

[2] = OVCAR-5, glucocorticoid 100 nM dexamethasone, relacorilant in the presence of the glucocorticoid

Question: With `Cn1cc(S(=O)(=O)N2CCC3=Cc4c(cnn4-c4ccc(F)cc4)C[C@]3(C(=O)c3cc(C(F)(F)F)ccn3)C2)cn1` [relacorilant, (R)-(1-(4-fluorophenyl)-6-((1-methyl-1H-pyrazol-4-yl)sulfonyl)-4,4a,5,6,7,8-hexahydro-1H-pyrazolo[3,4-g]isoquinolin-4a-yl)(4-(trifluoromethyl)pyridin-2-yl)methanone] as the compound, how does the “cell numbers (luminosity) in the presence of bortezumib and palbociclib” value ([1]; OVCAR-5, bortezumib 500 μM, palbociclib 100 μM, 100 nM dexamethasone, 300 nM relacorilant) read?
Answer: Its value is “opposed”.

Question: What about the “maximal toxicity at high chemotherapy concentrations” value ([1]; OVCAR-5, dexamethasone, relacorilant + dexamethasone) of the same compound?
Answer: The value was “reversed this”.

Question: What about the “half-maximal potency of / sensitivity to oxaliplatin” value [1, 2] of the same compound?
Answer: Its value is “restored sensitivity to oxaliplatin”.

Question: What about the “maximum effect of / sensitivity to gemcitabine” value [1, 2] of the same compound?
Answer: The value was “restored sensitivity to gemcitabine”.

Question: What about the “maximum effect of / sensitivity to paclitaxel” value [1, 2] of the same compound?
Answer: Its value is “restored sensitivity to paclitaxel”.

Question: What about the “effects of dexamethasone on response to chemotherapeutic agents” value ([1]; OVCAR-5, several chemotherapeutic agents) of the same compound?
Answer: The value was “reversed the effects of dexamethasone in all cases”.

Question: What about the potency of carboplatin ([1]; OVCAR-5 grown with 100 nM dexamethasone, carboplatin titrated against increasing amounts of relacorilant) of the same compound?
Answer: The potency of carboplatin was “dose-dependently increased”.

Question: What about the “time to progression (fraction of tumors whose volume remained below 400 mm^3)” value (MIA PaCa-2 xenograft; relacorilant (30 mg/kg every day) added to paclitaxel 7.5 mg/kg days 8, 12, 16, compared to paclitaxel alone, p<0.0001) of the same compound?
Answer: Its value is “delayed the time to progression”.

Question: What about the “tumor growth (tumor volume over time)” value (MIA PaCa-2 xenograft; relacorilant added to 7.5 mg/kg paclitaxel (days 8, 12, 16), compared to paclitaxel alone, p<0.0001) of the same compound?
Answer: Its value is “delayed tumor growth”.

Question: And the “time to progression (fraction of tumors whose volume remained below 400 mm^3)” value (MIA PaCa-2 xenograft; single agent, relacorilant 30 mg/kg every day or paclitaxel 7.5 mg/kg on days 8, 12, 16)?
Answer: The value was “nearly superimposed on the vehicle line”.

Question: What about the “binding to the glucocorticoid receptor” value (glucocorticoid receptor) of the same compound?
Answer: The value was “potently binds”.

Question: What about the Ki (androgen receptor) of the same compound?
Answer: The Ki was greater than 10 µM.

Question: And the Ki (progesterone receptor)?
Answer: The Ki was greater than 10 µM.
